Article PMC5620987 (ACS Central Science, 2017)
Where two headings read alike, the source gives them in different places.

Legend:
α-tubulin-ac = assay type: cell-based; conditions: 6 h, human iPSC-derived NPCs, Western blot
H3K9ac = assay type: cell-based; conditions: 6 h, human iPSC-derived NPCs, Western blot
H4K12ac = assay type: cell-based; conditions: 6 h, human iPSC-derived NPCs, Western blot
HDAC6 = HDAC6 (Rattus norvegicus, UniProt A0A8I6GM68); assay: Autoradiography with [18F]Bavarostat on rat brain slices; assay type: binding, Sprague–Dawley rat; conditions: sagittal rat brain slices; 10 μM per Figure 4 legend (100 μM per method)
Chain of HDAC6 (A0A8I6GM68 whole entry): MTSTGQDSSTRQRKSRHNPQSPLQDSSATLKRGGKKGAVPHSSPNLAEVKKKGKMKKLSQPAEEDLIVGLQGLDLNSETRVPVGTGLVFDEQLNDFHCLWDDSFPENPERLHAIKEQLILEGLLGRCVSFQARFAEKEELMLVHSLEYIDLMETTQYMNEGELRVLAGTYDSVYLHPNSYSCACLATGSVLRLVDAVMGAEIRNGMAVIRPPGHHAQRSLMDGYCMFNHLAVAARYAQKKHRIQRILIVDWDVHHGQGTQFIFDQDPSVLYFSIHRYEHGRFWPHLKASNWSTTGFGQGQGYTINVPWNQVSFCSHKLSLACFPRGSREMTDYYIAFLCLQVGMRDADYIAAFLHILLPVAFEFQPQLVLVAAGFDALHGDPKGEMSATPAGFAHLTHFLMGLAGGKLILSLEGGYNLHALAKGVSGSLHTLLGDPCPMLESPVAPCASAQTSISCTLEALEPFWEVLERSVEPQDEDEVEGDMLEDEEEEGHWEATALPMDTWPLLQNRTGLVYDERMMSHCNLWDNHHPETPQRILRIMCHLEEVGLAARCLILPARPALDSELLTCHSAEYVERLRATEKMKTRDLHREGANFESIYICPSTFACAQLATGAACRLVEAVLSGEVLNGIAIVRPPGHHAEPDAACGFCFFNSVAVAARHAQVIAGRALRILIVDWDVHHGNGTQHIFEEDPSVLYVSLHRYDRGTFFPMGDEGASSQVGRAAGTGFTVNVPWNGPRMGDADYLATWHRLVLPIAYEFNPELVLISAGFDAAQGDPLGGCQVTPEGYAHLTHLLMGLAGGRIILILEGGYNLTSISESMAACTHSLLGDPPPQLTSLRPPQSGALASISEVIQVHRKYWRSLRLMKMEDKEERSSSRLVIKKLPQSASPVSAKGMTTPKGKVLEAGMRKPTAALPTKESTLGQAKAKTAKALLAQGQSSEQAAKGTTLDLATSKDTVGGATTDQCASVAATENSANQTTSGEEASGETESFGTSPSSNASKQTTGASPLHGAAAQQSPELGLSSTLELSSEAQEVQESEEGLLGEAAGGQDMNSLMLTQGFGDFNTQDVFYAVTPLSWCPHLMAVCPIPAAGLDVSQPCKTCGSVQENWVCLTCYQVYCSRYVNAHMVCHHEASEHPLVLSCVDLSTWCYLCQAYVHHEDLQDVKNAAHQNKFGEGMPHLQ

| Reduction of bound [18F]Bavarostat radioactivity (HDAC6) | Compound | α-tubulin acetylation level (α-tubulin-ac) vs DMSO (α-tubulin-ac; 5 μM) | H3K9ac level vs DMSO (H3K9ac; 5 μM) | H4K12ac level vs DMSO (H4K12ac; 5 μM) | α-tubulin acetylation level (α-tubulin-ac) vs DMSO (α-tubulin-ac; 10 μM) | H3K9ac level vs DMSO (H3K9ac; 10 μM) | H4K12ac level vs DMSO (H4K12ac; 10 μM) |
| --- | --- | --- | --- | --- | --- | --- | --- |
| – | O=C(CCCCCCNC(=O)c1cnc(N(c2ccccc2)c2ccccc2)nc1)NO [ACY-1215] | effectively increased | increased | increased | – | – | – |
| – | CC(=O)Nc1ccc(C(=O)Nc2ccccc2N)cc1 [CI-994] | – | – | – | not α-tubulin-ac | significant increase | significant increase |
| comparable level as Bavarostat | CN1CCc2c(c3ccccc3n2Cc2ccc(C(=O)NO)cc2)C1 [Tubastatin A] | – | – | – | significantly increased | – | – |
